From PubChem BioAssay (NCI)
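Assay format: 96-well plates, 48-hour exposure. GI50 marks 50% less growth. TGI: total growth inhibition.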

Assays:
Test in all cases: inhibition of tumour cell growth, NCI panel, 48 h
HOP-62 NSCLC = system: HOP-62 NSCLC
TK-10 renal = system: TK-10 renal
COLO 205 colon = system: COLO 205 colon
OVCAR-5 ovarian = system: OVCAR-5 ovarian
MALME-3M melanoma = system: MALME-3M melanoma
MCF7 breast = system: MCF7 breast
UO-31 renal = system: UO-31 renal
OVCAR-3 ovarian = system: OVCAR-3 ovarian
EKVX NSCLC = system: EKVX NSCLC
OVCAR-4 ovarian = system: OVCAR-4 ovarian
A498 renal = system: A498 renal
NCI/ADR-RES ovarian = system: NCI/ADR-RES ovarian
ACHN renal = system: ACHN renal
KM12 colon = system: KM12 colon
HT29 colon = system: HT29 colon
SR leukemia = system: SR leukemia
HCC-2998 colon = system: HCC-2998 colon
SF-295 CNS = system: SF-295 CNS
A549 NSCLC = system: A549 NSCLC
SK-MEL-2 melanoma = system: SK-MEL-2 melanoma
786-0 renal = system: 786-0 renal
NCI-H522 lung = system: NCI-H522 lung
SF-268 CNS = system: SF-268 CNS
T-47D breast = system: T-47D breast
CAKI-1 renal = system: CAKI-1 renal
BT-549 breast = system: BT-549 breast
MDA-MB-231 breast = system: MDA-MB-231 breast
NCI-H226 lung = system: NCI-H226 lung
SN12C renal = system: SN12C renal
PC-3 prostate = system: PC-3 prostate
U251 CNS = system: U251 CNS
UACC-257 melanoma = system: UACC-257 melanoma
RPMI-8226 leukemia = system: RPMI-8226 leukemia
MDA-MB-435 = system: MDA-MB-435
IGROV1 ovarian = system: IGROV1 ovarian
SK-MEL-28 melanoma = system: SK-MEL-28 melanoma
MDA-MB-468 breast = system: MDA-MB-468 breast
SW-620 colon = system: SW-620 colon
HS 578T breast = system: HS 578T breast
SK-OV-3 ovarian = system: SK-OV-3 ovarian
SF-539 CNS = system: SF-539 CNS
LOX IMVI melanoma = system: LOX IMVI melanoma
DU-145 prostate = system: DU-145 prostate
UACC-62 melanoma = system: UACC-62 melanoma
OVCAR-8 ovarian = system: OVCAR-8 ovarian
SNB-19 CNS = system: SNB-19 CNS
SK-MEL-5 melanoma = system: SK-MEL-5 melanoma
HCT-15 colon = system: HCT-15 colon
NCI-H23 lung = system: NCI-H23 lung
CCRF-CEM leukemia = system: CCRF-CEM leukemia
RXF 393 renal = system: RXF 393 renal

CCN1CCN(Cc2ccc(C(=O)Nc3cccc(C#Cc4cccc5[nH]nc(N)c45)c3)cc2C(F)(F)F)CC1
GI50 (HOP-62 NSCLC): 1730 nM
TGI (HOP-62 NSCLC): 3640 nM
GI50 (TK-10 renal): 1890 nM
TGI (TK-10 renal): 3380 nM
GI50 (COLO 205 colon): 1190 nM
TGI (COLO 205 colon): 2720 nM
GI50 (OVCAR-5 ovarian): 1470 nM
TGI (OVCAR-5 ovarian): 3030 nM
GI50 (MALME-3M melanoma): 509 nM
TGI (MALME-3M melanoma): 1820 nM
GI50 (MCF7 breast): 1610 nM
TGI (MCF7 breast): 3050 nM
GI50 (UO-31 renal): 1430 nM
TGI (UO-31 renal): 2930 nM
GI50 (OVCAR-3 ovarian): 1180 nM
TGI (OVCAR-3 ovarian): 2860 nM
GI50 (EKVX NSCLC): 1350 nM
TGI (EKVX NSCLC): 2790 nM
GI50 (OVCAR-4 ovarian): 1040 nM
TGI (OVCAR-4 ovarian): 5300 nM
GI50 (A498 renal): 2540 nM
TGI (A498 renal): 4210 nM
GI50 (NCI/ADR-RES ovarian): 1800 nM
TGI (NCI/ADR-RES ovarian): 4040 nM
GI50 (ACHN renal): 598 nM
TGI (ACHN renal): 1870 nM
GI50 (KM12 colon): 1660 nM
TGI (KM12 colon): 3270 nM
GI50 (HT29 colon): 1100 nM
TGI (HT29 colon): 2450 nM
GI50 (SR leukemia): 1780 nM
TGI (SR leukemia): 4590 nM
GI50 (HCC-2998 colon): 1300 nM
TGI (HCC-2998 colon): 2560 nM
GI50 (SF-295 CNS): 1430 nM
TGI (SF-295 CNS): 2820 nM
GI50 (A549 NSCLC): 1300 nM
TGI (A549 NSCLC): 2600 nM
GI50 (SK-MEL-2 melanoma): 1470 nM
TGI (SK-MEL-2 melanoma): 2930 nM
GI50 (786-0 renal): 1470 nM
TGI (786-0 renal): 2840 nM
GI50 (NCI-H522 lung): 1100 nM
TGI (NCI-H522 lung): 2400 nM
GI50 (SF-268 CNS): 1430 nM
TGI (SF-268 CNS): 3330 nM
GI50 (T-47D breast): 2250 nM
TGI (T-47D breast): 6180 nM
GI50 (CAKI-1 renal): 1450 nM
TGI (CAKI-1 renal): 2780 nM
GI50 (BT-549 breast): 1640 nM
TGI (BT-549 breast): 3060 nM
GI50 (MDA-MB-231 breast): 919 nM
TGI (MDA-MB-231 breast): 2140 nM
GI50 (NCI-H226 lung): 1190 nM
TGI (NCI-H226 lung): 3600 nM
GI50 (SN12C renal): 1180 nM
TGI (SN12C renal): 2480 nM
GI50 (PC-3 prostate): 1300 nM
TGI (PC-3 prostate): 2780 nM
GI50 (U251 CNS): 1510 nM
TGI (U251 CNS): 2850 nM
GI50 (UACC-257 melanoma): 1470 nM
TGI (UACC-257 melanoma): 2860 nM
GI50 (RPMI-8226 leukemia): 1590 nM
TGI (RPMI-8226 leukemia): 3920 nM
GI50 (MDA-MB-435): 1230 nM
TGI (MDA-MB-435): 2500 nM
GI50 (IGROV1 ovarian): 965 nM
TGI (IGROV1 ovarian): 2480 nM
GI50 (SK-MEL-28 melanoma): 1630 nM
TGI (SK-MEL-28 melanoma): 3000 nM
GI50 (MDA-MB-468 breast): 1030 nM
TGI (MDA-MB-468 breast): 2320 nM
GI50 (SW-620 colon): 1230 nM
TGI (SW-620 colon): 2810 nM
GI50 (HS 578T breast): 2140 nM
TGI (HS 578T breast): 6680 nM
GI50 (SK-OV-3 ovarian): 2190 nM
TGI (SK-OV-3 ovarian): 4560 nM
GI50 (SF-539 CNS): 533 nM
TGI (SF-539 CNS): 1760 nM
GI50 (LOX IMVI melanoma): 739 nM
TGI (LOX IMVI melanoma): 1990 nM
GI50 (DU-145 prostate): 1530 nM
TGI (DU-145 prostate): 3120 nM
GI50 (UACC-62 melanoma): 1320 nM
TGI (UACC-62 melanoma): 2620 nM
GI50 (OVCAR-8 ovarian): 1430 nM
TGI (OVCAR-8 ovarian): 2800 nM
GI50 (SNB-19 CNS): 1950 nM
TGI (SNB-19 CNS): 3630 nM
GI50 (SK-MEL-5 melanoma): 1540 nM
TGI (SK-MEL-5 melanoma): 2900 nM
GI50 (HCT-15 colon): 721 nM
TGI (HCT-15 colon): 2020 nM
GI50 (NCI-H23 lung): 1410 nM
TGI (NCI-H23 lung): 2760 nM
GI50 (CCRF-CEM leukemia): 1600 nM
TGI (CCRF-CEM leukemia): 3620 nM
GI50 (RXF 393 renal): 1100 nM
TGI (RXF 393 renal): 2490 nM
